Experiments:
COL1A1 promotor = COL1A1 promotor luciferase reporter gene assay in TGF-β1-treated LX-2 cells; assay type: cell-based, human; settings: Homo sapiens; for inhibition at 40 µM / inhibition at 80 µM: LX-2, 24 h; for inhibition at 40 µM: 24 h with TGF-β1, read-out: Inhibition Percentage 40 μM (inhibition rate of COL1A1 promotor's activity); for inhibition at 80 µM: 24 h with TGF-β1, read-out: Inhibition Percentage 80 μM (inhibition rate of COL1A1 promotor's activity); for IC50: read-out: IC50 (concentration required to inhibit 50% of COL1A1 promotor's activity)
Experimental: A single luciferase reporter gene detection model was applied to evaluate the inhibitory effects of all target compounds on the expression of COL1A1 promotor in human hepatic stellate LX-2 cells at the concentrations of 40 and 80 μM, taking EGCG as the positive control. The LX-2 cell lines were transfected with COL1A1 promotor luciferase plasmid pGL4.17-COL1A1P for 24 h, then simultaneously treated with TGF-β1 and a tested compound for 24 h.
Cells were maintained on Dulbecco’s Modified Eagle’s medium (DMEM), laid on 96-well plate. DMEM medium was supplemented with 10% fetal bovine serum (FBS) at 37 °C humidified atmosphere with 5% CO2. Furthermore, serum-free culture was required until the cells were confluent at 90−95%. 24 h later the cells were treated with a tested compound (40 and 80 μM) for 24 h. The COL1A1 promotor activity was detected by the Bright-Glo luciferase assay system. Alternatively, to test the acute effects of compound on luciferase activity, 24 h later the cells were lysed and the lysate was treated with a tested compound (80 μM) for 2 h, then the luciferase was detected by the Bright-Glo luciferase assay system (Promega, Madison, WI, USA).

COL1A1 protein = test: Western blot of COL1A1 protein in LX-2 cells; assay type: cell-based; settings: Homo sapiens, 24 h, read-out: Inhibition rate of COL1A1 protein; for inhibition at 6 µM: with TGF-β1, 6 μM; for inhibition at 12 µM: with TGF-β1, 12 μM
Experimental: Then the anti-COL1A1 effects of 4n and 4p on protein level were evaluated by western blot assay.
(§1) LX-2 cells were cultured as described above. Cells were washed with phosphate-buffered saline (PBS) and were resuspended by radioimmunoprecipitation assay (RIPA) lysis buffer for 30 min in 4 °C; the supernatant was collected after centrifugation at 12000 g for 15 min at 4 °C. Subsequently, equal amounts of protein were quantified with Bradford assay, separated using SDS-PAGE and transferred onto polyvinylidene difluoride membrane. The membranes were blocked with 5% milk in PBST for 1 h, and probed with specific primary antibodies overnight at room temperature. The membrane was washed three times by PBST, and probed with horseradish peroxidase-conjugated secondary antibodies and GAPDH. The proteins were visualized by chemiluminescence reagents. Antibodies used in western blot analysis were obtained from Abcam (Cambridge, UK): anti-collagen 1 (ab34710), anti-TGF beta 1 antibody (ab179695), anti-alpha smooth muscle actin (ab32575) and Cell Signaling Technology (Danvers, MA, USA): GAPDH (D16H11) Rabbit mAb (5174).

α-SMA protein = test: Western blot of α-SMA protein in LX-2 cells; assay type: cell-based, human; settings: with TGF-β1, 6 and 12 μM, 24 h
Experimental: Stellate cell activation is a key process for liver fibrogenesis, and α-SMA expression, induced by a stimulation of TGF-β1 or other factors, is considered a reliable marker of hepatic stellate cell activation and a key biomarker for liver fibrosis. Therefore, the expression of α-SMA was also investigated. As presented in Figure 3A–C and Supplementary Table S2, in our experiments, the addition of TGF-β1 stimulated the expression of α-SMA on protein level as expected.
as §1, with “Antibodies used in western blot analysis were obtained from Abcam (Cambridge, UK): anti-collagen 1 (ab34710), anti-TGF beta 1 antibody (ab179695), anti-alpha smooth muscle actin (ab32575) and Cell Signaling Technology (Danvers, MA, USA): GAPDH (D16H11) Rabbit mAb (5174).” left out

COL1A1 mRNA = test: RT-PCR of COL1A1 mRNA in LX-2 cells; assay type: cell-based, human; settings: 24 h
Experimental: In the absence or presence of TGF-β1 (2 ng/mL) treatment, LX-2 cells were treated with key compounds 4n and 4p at concentrations of 6 μM and 12 μM, or 4i at a concentration of 12 μM, respectively.
LX-2 cells were laid on 6-well plate and cultured in DMEM supplemented with 10% fetal bovine serum (FBS) in a 5% CO2 atmosphere at 37 °C. And serum-free culture was required until the cells reached 90−95% confluence. […] Total RNA of the LX-2 cells was isolated using TRIzol reagent, purified using NucleoSpin RNA Clean-up. Reverse transcription was performed with Transcriptor first strand cDNA synthesis kit. Subsequently, the cDNA levels was determined by ABI 7500 Fast Real-Time PCR System using TaqMan probes of COL1A1, TGF-β1, α-SMA, and GAPDH (sequence not disclosed by ABI) and FastStart Universal Probe master mix (Roche, Indianapolis, IN, USA).

[1] = TGF-β1 (2 ng/mL) stimulation, 6 μM
[2] = TGF-β1 (2 ng/mL) stimulation, 12 μM

Compound | inhibition at 40 µM (COL1A1 promotor) | inhibition at 80 µM (COL1A1 promotor) | IC50 (COL1A1 promotor) | inhibition at 6 µM (COL1A1 protein) | inhibition at 12 µM (COL1A1 protein) | Inhibition of α-SMA expression on protein level (α-SMA protein) | Inhibitory rate of COL1A1 transcription (mRNA) (COL1A1 mRNA; [1]) | Inhibitory rate of COL1A1 transcription (mRNA) (COL1A1 mRNA; [2]) | Inhibitory rate of COL1A1 transcription (mRNA) (COL1A1 mRNA; absence of TGF-β1, 6 μM) | Inhibitory rate of COL1A1 transcription (mRNA) (COL1A1 mRNA; absence of TGF-β1, 12 μM)
O=C(CN1CCCC2=C[C@H]3C[C@H](CN4CCCC[C@H]34)[C@@H]21)N(c1ccccc1)c1ccc2ccccc2c1 [4n, 12N-(N’-(Naphthalen-2-yl)-N’-phenyl)carbamoylmethyl aloperine] | 99.9 ± 0.1% | 100% | 13.3 ± 0.5 µM | 31.8% | 76.5% | dose-dependent inhibition | 76.0% | 84.5% | 42% | 47%
O=C(CN1CCCC2=C[C@H]3C[C@H](CN4CCCC[C@H]34)[C@@H]21)N1c2ccccc2Oc2ccccc21 [4p, 12N-N′-Phenoxazinylcarbamoylmethyl aloperine] | 72.2 ± 1.5% | 99.1 ± 1% | 16.5 ± 0.4 µM | 22.7% | 79.2% | dose-dependent inhibition | 99.5% | 102.9% | 38% | 42%

Source: paper PMC7663597, “Structure–Activity Relationship of Aloperine Derivatives as New Anti–Liver Fibrogenic Agents” (Molecules, 2020)
